# Test results taken from publication PMC7576618 (British Journal of Clinical Pharmacology, 2020).
# Tests used:
# [1] = tested on: healthy subjects; assay: SAD study: safety and tolerability; type: in vivo, human
# [2] = monkeys; cited from earlier work
# [3] = tested on: healthy subjects; assay: MAD study: safety and tolerability; type: in vivo, human
# [4] = SAD Parts A and C, Total TS‐134 fed (n = 8)
# [5] = SAD, 20 mg fasted treatment group
# [6] = MAD Cohort 1, 5–10 mg fed (n = 8)
# [7] = MAD Cohort 2, 5–20 mg fed (n = 8)
# [8] = MAD Cohort 3, 5–40 mg fed (n = 8)
# [9] = MAD Cohort 4, 5–60 mg fed (n = 8)
# [10] = MAD Cohort 5, 10–80 mg fed (n = 8)
# [11] = MAD Cohort 6, 10–80 mg fed (n = 7)
# [12] = MAD, 80 mg MP in Cohort 5, data not shown
smiles,measurement,setting,value
"CC(C)[C@@H]1CC[C@@H](C)C[C@H]1OC(=O)O[C@@H](C)OC(=O)[C@H]1[C@@H]2C[C@H](F)[C@@](N)(C(=O)O)[C@@H]21.O=S(=O)(O)c1ccccc1 [TS‐134, (1S,2S,3S,5R,6S)‐2‐amino‐3‐ fluoro‐6‐({(1S)‐1‐[({[(1R,2S,5R)‐5‐methyl‐2‐(propan‐2‐yl)cyclohexyl]oxy}carbonyl)oxy]ethoxy}carbonyl)bicyclo[3.1.0]hexane‐2‐carboxylic acid monobenzenesulfonate]",Somnolence,[1]; [4],0 Number of subjects (%)
same,Total number of TEAEs,[1]; [4],7
same,Vomiting,[1]; [4],1 (12.5) Number of subjects (%)
same,reports of severe nausea,[1]; [5],1 report
same,reports of severe vomiting,[1]; [5],2 reports
same,dose up to which a single dose was tolerated,"[1]; SAD, single oral dose TS‐134 solution",up to 10 mg
same,deaths or serious adverse events,[1]; both studies,no deaths or serious adverse events
same,conversion of the prodrug into MGS0008 after oral administration,[2],rapidly converted into MGS0008
same,dose up to which multiple dose titration was tolerated,"[3]; 14‐day MAD, titration schemes under fed conditions",up to 80 mg
same,Abnormal dreams,[3]; [6],0 Number of subjects (%)
same,Dizziness,[3]; [6],0 Number of subjects (%)
same,Headache,[3]; [6],1 (12.5) Number of subjects (%)
same,Insomnia,[3]; [6],0 Number of subjects (%)
same,Nausea,[3]; [6],2 (25.0) Number of subjects (%)
same,Number of subjects with at least 1 TEAE,[3]; [6],5 (62.5) Number of subjects (%)
same,Post lumbar puncture syndrome,[3]; [6],0 Number of subjects (%)
same,Pruritus,[3]; [6],0 Number of subjects (%)
same,Somnolence,[3]; [6],3 (37.5) Number of subjects (%)
same,Total number of TEAEs,[3]; [6],11
same,Vomiting,[3]; [6],0 Number of subjects (%)
same,Abnormal dreams,[3]; [7],0 Number of subjects (%)
same,Dizziness,[3]; [7],1 (12.5) Number of subjects (%)
same,Headache,[3]; [7],3 (37.5) Number of subjects (%)
same,Insomnia,[3]; [7],0 Number of subjects (%)
same,Nausea,[3]; [7],3 (37.5) Number of subjects (%)
same,Number of subjects with at least 1 TEAE,[3]; [7],5 (62.5) Number of subjects (%)
same,Post lumbar puncture syndrome,[3]; [7],0 Number of subjects (%)
same,Pruritus,[3]; [7],0 Number of subjects (%)
same,Somnolence,[3]; [7],1 (12.5) Number of subjects (%)
same,Total number of TEAEs,[3]; [7],17
same,Vomiting,[3]; [7],0 Number of subjects (%)
same,Abnormal dreams,[3]; [8],0 Number of subjects (%)
same,Dizziness,[3]; [8],3 (37.5) Number of subjects (%)
same,Headache,[3]; [8],3 (37.5) Number of subjects (%)
same,Insomnia,[3]; [8],0 Number of subjects (%)
same,Nausea,[3]; [8],2 (25.0) Number of subjects (%)
same,Number of subjects with at least 1 TEAE,[3]; [8],5 (62.5) Number of subjects (%)
same,Post lumbar puncture syndrome,[3]; [8],0 Number of subjects (%)
same,Pruritus,[3]; [8],0 Number of subjects (%)
same,Somnolence,[3]; [8],1 (12.5) Number of subjects (%)
same,Total number of TEAEs,[3]; [8],16
same,Vomiting,[3]; [8],1 (12.5) Number of subjects (%)
same,Abnormal dreams,[3]; [9],2 (25.0) Number of subjects (%)
same,Dizziness,[3]; [9],1 (12.5) Number of subjects (%)
same,Headache,[3]; [9],5 (62.5) Number of subjects (%)
same,Insomnia,[3]; [9],3 (37.5) Number of subjects (%)
same,Nausea,[3]; [9],3 (37.5) Number of subjects (%)
same,Number of subjects with at least 1 TEAE,[3]; [9],8 (100) Number of subjects (%)
same,Post lumbar puncture syndrome,[3]; [9],0 Number of subjects (%)
same,Pruritus,[3]; [9],1 (12.5) Number of subjects (%)
same,Somnolence,[3]; [9],1 (12.5) Number of subjects (%)
same,Total number of TEAEs,[3]; [9],26
same,Vomiting,[3]; [9],2 (25.0) Number of subjects (%)
same,Abnormal dreams,[3]; [10],0 Number of subjects (%)
same,Dizziness,[3]; [10],0 Number of subjects (%)
same,Headache,[3]; [10],3 (37.5) Number of subjects (%)
same,Insomnia,[3]; [10],0 Number of subjects (%)
same,Nausea,[3]; [10],3 (37.5) Number of subjects (%)
same,Number of subjects with at least 1 TEAE,[3]; [10],7 (87.5) Number of subjects (%)
same,Post lumbar puncture syndrome,[3]; [10],0 Number of subjects (%)
same,Pruritus,[3]; [10],0 Number of subjects (%)
same,Somnolence,[3]; [10],1 (12.5) Number of subjects (%)
same,Total number of TEAEs,[3]; [10],30
same,Vomiting,[3]; [10],0 Number of subjects (%)
same,Abnormal dreams,[3]; [11],0 Number of subjects (%)
same,Dizziness,[3]; [11],3 (42.9) Number of subjects (%)
same,Headache,[3]; [11],1 (14.3) Number of subjects (%)
same,Insomnia,[3]; [11],1 (14.3) Number of subjects (%)
same,Nausea,[3]; [11],2 (28.6) Number of subjects (%)
same,Number of subjects with at least 1 TEAE,[3]; [11],6 (85.7) Number of subjects (%)
same,Post lumbar puncture syndrome,[3]; [11],0 Number of subjects (%)
same,Pruritus,[3]; [11],3 (42.9) Number of subjects (%)
same,Somnolence,[3]; [11],2 (28.6) Number of subjects (%)
same,Total number of TEAEs,[3]; [11],25
same,Vomiting,[3]; [11],0 Number of subjects (%)
same,Abnormal dreams,[3]; MAD Total TS‐134 (n = 47),2 (4.3) Number of subjects (%)
same,Dizziness,[3]; MAD Total TS‐134 (n = 47),8 (17.0) Number of subjects (%)
same,Headache,[3]; MAD Total TS‐134 (n = 47),16 (34.0) Number of subjects (%)
same,Insomnia,[3]; MAD Total TS‐134 (n = 47),4 (8.5) Number of subjects (%)
same,Nausea,[3]; MAD Total TS‐134 (n = 47),15 (31.9) Number of subjects (%)
same,Number of subjects with at least 1 TEAE,[3]; MAD Total TS‐134 (n = 47),36(76.6) Number of subjects (%)
same,Post lumbar puncture syndrome,[3]; MAD Total TS‐134 (n = 47),0 Number of subjects (%)
same,Pruritus,[3]; MAD Total TS‐134 (n = 47),4 (8.5) Number of subjects (%)
same,Somnolence,[3]; MAD Total TS‐134 (n = 47),9 (19.1) Number of subjects (%)
same,Total number of TEAEs,[3]; MAD Total TS‐134 (n = 47),125
same,Vomiting,[3]; MAD Total TS‐134 (n = 47),3 (6.4) Number of subjects (%)
same,discontinuations due to TEAEs,[3]; MAD study,no discontinuations due to TEAEs
same,reports of severe anxiety,[3]; [12],1 report
same,reports of severe fatigue,[3]; [12],1 report
same,incidence of dizziness,"[3]; MAD, total TS‐134 group",17.0%
same,incidence of headache,"[3]; MAD, total TS‐134 group",34.0%
same,incidence of nausea,"[3]; MAD, total TS‐134 group",31.9%
same,incidence of somnolence,"[3]; MAD, total TS‐134 group",19.1%
same,incidence of vomiting,"[3]; MAD, total TS‐134 group",6.4%
